Assay results reported in patent US8530468B2 (Cancer Research Technology Limited, priority 2008, dated 2013).
Where two headings read alike, the source gives them in different places.

Tests used:
[1] = biological target: T1, CHK1 (Homo sapiens, UniProt O14757); assay: CHK1 kinase function inhibition (DELFIA assay, phosphorylation of CDC25C peptide); assay type: biochemical; details: CHK1 1 nM, ATP 30 μM, 30 minutes at room temperature
T1 sequence (O14757 1-476): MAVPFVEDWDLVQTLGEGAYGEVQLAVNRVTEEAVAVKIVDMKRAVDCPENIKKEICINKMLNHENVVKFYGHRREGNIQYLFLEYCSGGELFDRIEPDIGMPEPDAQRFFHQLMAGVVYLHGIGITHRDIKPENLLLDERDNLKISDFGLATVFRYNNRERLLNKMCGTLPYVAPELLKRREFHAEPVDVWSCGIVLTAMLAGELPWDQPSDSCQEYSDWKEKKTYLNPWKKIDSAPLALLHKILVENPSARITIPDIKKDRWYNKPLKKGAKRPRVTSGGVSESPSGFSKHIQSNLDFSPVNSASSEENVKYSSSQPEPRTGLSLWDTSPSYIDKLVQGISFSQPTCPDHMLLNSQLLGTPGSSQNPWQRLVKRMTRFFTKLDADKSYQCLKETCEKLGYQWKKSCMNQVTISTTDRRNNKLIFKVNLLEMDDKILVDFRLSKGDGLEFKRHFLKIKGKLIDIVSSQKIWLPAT

[2] = system: HT29 cells; assay: Mitosis inhibition assay (MIA), checkpoint abrogation after etoposide; assay type: cell-based; details: Homo sapiens, HT-29, etoposide 50 μM 1 hour, then compound with nocodazole 100 ng/mL, 21 hours, read-out: MIA IC50 (concentration required to allow 50% of cells to enter mitosis)
[3] = system: HT29 colon carcinoma cells; assay: Cytotoxicity assay (SRB); assay type: cell-based; details: Homo sapiens, read-out: SRB IC50 (concentration required to inhibit growth by 50%)

Compound | IC50 [1] | IC50 [2] | IC50 ([3]; HT-29, 96 hours) | IC50 ([3]; HT-29, 96 h)
N#Cc1cnc(Nc2cc3c(cn2)ncn3CC2CCCNC2)cn1 (centres unmarked) [BB-020, 5-(1-(Piperidin-3-ylmethyl)-1H-imidazo[4,5-c]pyridin-6-ylamino)pyrazine-2-carbonitrile] | 1 to 10 µM |  |  | 
N#Cc1ncc(Nc2cc3cccc(NCCCN4CCOCC4)c3cn2)nc1OCC1CC1 [AA-028] | ≤ 1 µM |  |  | 
C[C@H](CN(C)C)Oc1nc(Nc2cc3cccc(F)c3cn2)cnc1C#N [AA-054] | ≤ 1 µM | ≤ 10 µM | ≤ 10 µM | 
N#Cc1ncc(Nc2cc3cccc(Br)c3cn2)nc1OC[C@H]1CNCCO1 [AA-051] | ≤ 1 µM | ≤ 10 µM | ≤ 10 µM | 
C[C@H](C[N+](C)(C)[O-])Oc1nc(Nc2cc3cccc(Cl)c3cn2)cnc1C#N [AA-071, (R)-2-(6-(8-Chloroisoquinolin-3-ylamino)-3-cyanopyrazin-2-yloxy)-N,N-dimethylpropan-1-amine oxide] | ≤ 1 µM | ≤ 10 µM |  | 
CC(=O)Nc1cccc2cc(Nc3cnc(C#N)c(O[C@H](C)CN(C)C)n3)ncc12 [AA-064] | ≤ 1 µM |  |  | 
N#Cc1ncc(Nc2cc3ccccc3cn2)nc1OC1CCCNC1 (centres unmarked) [AA-015] |  |  |  | ≤ 10 µM
COc1cccc2cc(Nc3cnc(C#N)cn3)ncc12 [AA-021, 5-(8-methoxyisoquinolin-3-ylamino)pyrazine-2-carbonitrile] | 1 to 10 µM |  |  | 
CC(CN(C)C)Oc1nc(Nc2cc3cccc(Cl)c3cn2)cnc1C#N (centres unmarked) [AA-010] |  | ≤ 10 µM |  | ≤ 10 µM
N#Cc1ncc(Nc2cc3cccc(NCCCO)c3cn2)nc1O[C@@H]1CCNC1 [AA-040] | ≤ 1 µM | ≤ 10 µM | ≤ 10 µM | 
CNc1cccc2cc(Nc3cnc(C#N)cn3)ncc12 [AA-059] | ≤ 1 µM | ≤ 10 µM | ≤ 10 µM | 
N#Cc1ncc(Nc2cc3cccc(NCCO)c3cn2)nc1OC[C@H]1CNCCO1 [AA-043] | ≤ 1 µM | ≤ 10 µM | ≤ 10 µM | 
N#Cc1cnc(Nc2cc3cc(Cl)ccc3cn2)cn1 [AA-018, 5-(6-Chloroisoquinolin-3-ylamino)pyrazine-2-carbonitrile] | 1 to 10 µM |  |  | 
N#Cc1ncc(Nc2cc3ccccc3cn2)nc1OC[C@H]1CNCCO1 [AA-049] | ≤ 1 µM | ≤ 10 µM | ≤ 10 µM | 
N#Cc1cnc(Nc2cc3cccc(NCCCN4CCOCC4)c3cn2)cn1 [AA-027] | ≤ 1 µM | ≤ 10 µM | ≤ 10 µM | 
N#Cc1cnc(Nc2cc3cccc(N)c3cn2)cn1 [AA-061, 5-(8-Aminoisoquinolin-3-ylamino)pyrazine-2-carbonitrile] | ≤ 1 µM | ≤ 10 µM | ≤ 10 µM | 
C[C@H](CN(C)C)Oc1nc(Nc2cc3cccc(Cl)c3cn2)cnc1C#N [AA-023] |  | ≤ 10 µM |  | ≤ 10 µM
CC(CN(C)C)Oc1nc(Nc2cc3cccc(NCCCO)c3cn2)cnc1C#N (centres unmarked) [AA-034] | ≤ 1 µM | ≤ 10 µM | ≤ 10 µM | 
N#Cc1cnc(Nc2cc3[nH]c(CCC4CCNCC4)nc3cn2)cn1 [BB-011] | ≤ 1 µM |  |  | 
N#Cc1cnc(Nc2cc3[nH]c(C4CC4)nc3cn2)cn1 [BB-001, 5-(2-Cyclopropyl-1H-imidazo[4,5-c]pyridin-6-ylamino)pyrazine-2-carbonitrile] | 1 to 10 µM |  |  | 

Compound | IC50 [1] | IC50 [2] | IC50 ([3]; HT-29, 96 hours) | IC50 ([3]; HT-29, 96 h)
Cn1cnc2cnc(Nc3cnc(C#N)c(OCC4CCNCC4)n3)cc21 | ≤ 1 µM |  |  | 
COCCNC(=O)c1cccc2cc(Nc3cnc(C#N)c(OC(C)CN(C)C)n3)ncc12 (centres unmarked) [AA-066] | 1 to 10 µM | ≤ 10 µM |  | 
N#Cc1cnc(Nc2cc3cccc(-c4cc[nH]n4)c3cn2)cn1 [AA-019, 5-(8-(1H-pyrazol-3-yl)isoquinolin-3-ylamino)pyrazine-2-carbonitrile] | 1 to 10 µM |  |  | 
N#Cc1ncc(Nc2cc3cccc(Cl)c3cn2)nc1O[C@@H]1CCNC1 [AA-008, (R)-5-(8-Chloroisoquinolin-3-ylamino)-3-(pyrrolidin-3-yloxy)pyrazine-2-carbonitrile] | ≤ 1 µM | ≤ 10 µM | ≤ 10 µM | 
c1nc2cnc(Nc3cncc(OCC4CCNCC4)n3)cc2[nH]1 [BB-013] | 1 to 10 µM |  |  | 
COCCNc1cccc2cc(Nc3cnc(C#N)c(O[C@H](C)CN(C)C)n3)ncc12 [AA-039] |  | ≤ 10 µM | ≤ 10 µM | 
CCOC(=O)COc1nc(Nc2cc3ccccc3cn2)cnc1C#N [AA-068, Ethyl 2-(3-cyano-6-(isoquinolin-3-ylamino)pyrazin-2-yloxy)acetate] | 1 to 10 µM |  |  | 
CN1CCCC(Oc2nc(Nc3cc4[nH]cnc4cn3)cnc2C#N)C1 (centres unmarked) [BB-025] | ≤ 1 µM |  |  | 
CN1CCCC(COc2nc(Nc3cc4[nH]cnc4cn3)cnc2C#N)C1 (centres unmarked) [BB-026] | ≤ 1 µM |  |  | 
N#Cc1cnc(Nc2cc3c(Br)ccc(Cl)c3cn2)cn1 [AA-070, 5-(5-Bromo-8-chloroisoquinolin-3-ylamino)pyrazine-2-carbonitrile] | 1 to 10 µM |  |  | 
C[C@H](CN(C)C)Oc1nc(Nc2cc3ccccc3cn2)cnc1C#N [AA-022] |  | ≤ 10 µM |  | ≤ 10 µM
Cc1cccc2cc(Nc3cnc(C#N)cn3)ncc12 [AA-024] | 1 to 10 µM |  |  | 
N#Cc1cnc(Nc2cc3c(cn2)ncn3C2CCNCC2)cn1 [BB-022, 5-(1-(Piperidin-4-yl)-1H-imidazo[4,5-c]pyridin-6-ylamino)pyrazine-2-carbonitrile] | 1 to 10 µM |  |  | 
N#Cc1cnc(Nc2cc3c(cn2)ncn3[C@H]2CCCNC2)cn1 [BB-021, (S)-5-(1-(Piperidin-3-yl)-1H-imidazo[4,5-c]pyridin-6-ylamino)pyrazine-2-carbonitrile] | ≤ 1 µM |  |  | 
N#Cc1cnc(Nc2cc3c(cn2)ncn3[C@@H]2CCCNC2)cn1 [BB-023, (R)-5-(1-(Piperidin-3-yl)-1H-imidazo[4,5-c]pyridin-6-ylamino)pyrazine-2-carbonitrile] | 1 to 10 µM |  |  | 
CC(=O)Nc1cccc2cc(Nc3cnc(C#N)cn3)ncc12 [AA-062, N-(3-(5-Cyanopyrazin-2-ylamino)isoquinolin-8-yl)acetamide] | ≤ 1 µM |  |  | 
N#Cc1cnc(Nc2cc3[nH]c(-c4ccc(N5CCNCC5)cc4)nc3cn2)cn1 [BB-006] | 1 to 10 µM |  |  | 
N#Cc1cnc(Nc2cc3c(cn2)ncn3CCN)cn1 [BB-019, 5-(1-(2-Aminoethyl)-1H-imidazo[4,5-c]pyridin-6-ylamino)pyrazine-2-carbonitrile] | 1 to 10 µM |  |  | 
N#Cc1ncc(Nc2cc3cccc(NCCN4CCOCC4)c3cn2)nc1OCC1CCOC1 (centres unmarked) [AA-029] | ≤ 1 µM | ≤ 10 µM |  | 
N#Cc1ncc(Nc2cc3ccccc3cn2)nc1OCC1CCNCC1 [AA-003] |  |  |  | ≤ 10 µM

Compound | IC50 [1] | IC50 [2] | IC50 ([3]; HT-29, 96 hours) | IC50 ([3]; HT-29, 96 h)
COc1nc(Nc2cc3cccc(NCCO)c3cn2)cnc1C#N [AA-042] | ≤ 1 µM |  |  | 
COc1nc(Nc2cc3cccc(NCCN4CCOCC4)c3cn2)cnc1C#N [AA-030] | ≤ 1 µM | ≤ 10 µM |  | 
CN1CCCC(COc2nc(Nc3cc4cccc(Cl)c4cn3)cnc2C#N)C1 (centres unmarked) [AA-009] | ≤ 1 µM |  |  | 
N#Cc1cnc(Nc2cc3cccc(Br)c3cn2)cn1 [AA-017, 5-(8-Bromoisoquinolin-3-ylamino)pyrazine-2-carbonitrile] | 1 to 10 µM |  |  | 
Clc1cccc2cc(Nc3cncc(OCC4CCNCC4)n3)ncc12 [AA-005] | 1 to 10 µM |  |  | 
COCCC(=O)Nc1cccc2cc(Nc3cnc(C#N)cn3)ncc12 [AA-063, N-(3-(5-Cyanopyrazin-2-ylamino)isoquinolin-8-yl)-3-methoxypropanamide] | 1 to 10 µM |  |  | 
COCCNc1cccc2cc(Nc3cnc(C#N)cn3)ncc12 [AA-036] | ≤ 1 µM | ≤ 10 µM |  | 
N#Cc1ncc(Nc2cc3cccc(Cl)c3cn2)nc1OC1CCCNC1 (centres unmarked) [AA-007] |  | ≤ 10 µM |  | ≤ 10 µM
N#Cc1ncc(Nc2cc3cccc(NCCO)c3cn2)nc1OCC1CC1 [AA-045] | ≤ 1 µM |  |  | 
CC(C)CCOc1nc(Nc2cc3cccc(NCCO)c3cn2)cnc1C#N [AA-046] | 1 to 10 µM |  |  | 
CC(CN(C)C)Oc1nc(Nc2cc3[nH]cnc3cn2)cnc1C#N (centres unmarked) [BB-024, 5-(3H-Imidazo[4,5-c]pyridin-6-ylamino)-3-(1-(dimethylamino)propan-2-yloxy)pyrazine-2-carbonitrile] | ≤ 1 µM |  |  | 
N#Cc1ncc(Nc2cc3ccccc3cn2)nc1OCC(=O)O [AA-069, 2-(3-Cyano-6-(isoquinolin-3-ylamino)pyrazin-2-yloxy)acetic acid] | 1 to 10 µM |  |  | 
COCCCNc1cccc2cc(Nc3cnc(C#N)cn3)ncc12 [AA-035] | ≤ 1 µM | ≤ 10 µM |  | 
COc1cc(OC)c2cnc(Nc3cnc(C#N)cn3)cc2c1 [AA-011, 5-(6,8-Dimethoxyisoquinolin-3-ylamino)pyrazine-2-carbonitrile] | 1 to 10 µM |  |  | 
N#Cc1ncc(Nc2cc3cccc(NCCO)c3cn2)nc1OCC1CCOC1 (centres unmarked) [AA-047] | 1 to 10 µM |  |  | 
N#Cc1cnc(Nc2cc3cc[nH]c3cn2)cn1 [CC-001, 5-(1H-Pyrrolo[2,3-c]pyridin-5-ylamino)pyrazine-2-carbonitrile] | 1 to 10 µM |  |  | 
COc1nc(Nc2cc3ccccc3cn2)cnc1C#N [AA-048] | ≤ 1 µM |  |  | 
N#Cc1ncc(Nc2cc3cccc(F)c3cn2)nc1O[C@@H]1CCNC1 [AA-072] | ≤ 1 µM | ≤ 10 µM |  | 
N#Cc1ncc(Nc2cc3cccc(Cl)c3cn2)nc1OCC1CCNCC1 [AA-006] |  |  |  | ≤ 10 µM
N#Cc1ncc(Nc2cc3[nH]cnc3cn2)nc1O[C@@H]1CCNC1 [BB-027] | ≤ 1 µM |  |  | 
